We go through 2 compounds from patent US20230416299A1, “COMPOUND AND METHOD FOR THE TREATMENT AND DIAGNOSIS OF NEURODEGENERATIVE CONDITIONS” (Swansea University, priority 2013, published 2023).

The target of test [1] is T1, Lxrα (Homo sapiens, UniProt Q13133).
T1 construct: expressed in transfected cells; host or cells: SN4741 mouse neuronal cell line
T1 sequence (Q13133 1-447): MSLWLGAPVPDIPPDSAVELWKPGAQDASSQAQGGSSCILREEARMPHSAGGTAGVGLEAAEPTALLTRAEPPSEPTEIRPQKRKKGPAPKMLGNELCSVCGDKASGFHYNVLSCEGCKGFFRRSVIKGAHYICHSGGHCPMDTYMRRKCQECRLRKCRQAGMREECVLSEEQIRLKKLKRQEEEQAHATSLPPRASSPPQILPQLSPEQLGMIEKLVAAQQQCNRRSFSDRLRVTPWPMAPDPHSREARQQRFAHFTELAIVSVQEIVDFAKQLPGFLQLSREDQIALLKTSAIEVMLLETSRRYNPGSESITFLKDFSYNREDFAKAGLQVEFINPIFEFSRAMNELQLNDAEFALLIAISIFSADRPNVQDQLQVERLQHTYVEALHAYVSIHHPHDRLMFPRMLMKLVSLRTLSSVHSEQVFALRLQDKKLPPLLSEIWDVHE
The test can be described thus: Lxr-responsive luciferase reporter assay (Lxre + Lxrα) in SN4741 neural cells. The test is classed as cell-based, mouse. Particulars: 10 μM, 24 h. An excerpt:
(§1) Luciferase Reporter Assay.

The target in test [2] is T2, Lxrβ (Homo sapiens, UniProt P55055).
T2 construct: expressed in transfected cells; host or cells: SN4741 mouse neuronal cell line
T2 sequence (P55055 1-460): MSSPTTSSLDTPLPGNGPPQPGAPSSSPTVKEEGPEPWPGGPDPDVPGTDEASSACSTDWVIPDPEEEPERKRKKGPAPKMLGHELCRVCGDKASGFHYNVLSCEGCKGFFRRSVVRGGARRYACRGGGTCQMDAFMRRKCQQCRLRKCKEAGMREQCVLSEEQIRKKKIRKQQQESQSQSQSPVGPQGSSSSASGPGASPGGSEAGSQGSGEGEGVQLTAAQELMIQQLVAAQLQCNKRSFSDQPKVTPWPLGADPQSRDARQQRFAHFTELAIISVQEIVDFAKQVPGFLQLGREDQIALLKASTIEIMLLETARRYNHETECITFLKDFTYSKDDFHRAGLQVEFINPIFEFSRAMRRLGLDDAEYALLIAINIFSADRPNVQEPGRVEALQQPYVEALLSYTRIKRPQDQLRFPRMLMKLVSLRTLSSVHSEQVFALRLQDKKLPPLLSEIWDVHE
The experiment in a line: Lxr-responsive luciferase reporter assay (Lxre + Lxrβ) in SN4741 neural cells. The test is classed as cell-based, mouse. The settings on record: for Lxrβ activation, luciferase activity: SN4741 cells, 10 μM, 24 h; for Lxrβ activational capacity in combination with 22R-HC: acid 10 μM + 22R-HC 10 μM.
Description: as §1
Background: Reporter assays use an easily measured gene product as a stand-in for the process of interest.

Test [3] deals with T3, Lxrβ-LBD (Homo sapiens, UniProt P55055).
T3 construct: purchased Invitrogen
T3 sequence (P55055 222-460 limits assumed): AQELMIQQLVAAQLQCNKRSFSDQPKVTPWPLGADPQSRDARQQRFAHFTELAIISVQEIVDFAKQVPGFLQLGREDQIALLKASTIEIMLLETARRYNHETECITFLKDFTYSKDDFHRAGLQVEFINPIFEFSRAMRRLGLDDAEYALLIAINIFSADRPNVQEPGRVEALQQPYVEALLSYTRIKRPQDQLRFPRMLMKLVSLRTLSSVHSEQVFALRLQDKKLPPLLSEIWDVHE
The experiment in a line: LanthaScreen TR-FRET Lxrβ coactivator assay. The test is classed as binding. An excerpt: Lxrβ Ligand Binding Assay. For Lxrβ ligand binding activity measurement, the applicants used the LANTHASCREEN™ TR-FRET Lxrβ Coactivator Assay (Invitrogen). The assay uses a terbium (Tb)-labeled anti-GST antibody, a fluorescein-labeled coactivator peptide and the Lxrβ-LBD tagged with glutathione-S-transferase (GST). Binding of the agonist/ligand to Lxrβ-LBD causes a conformational change that result in an increase in the affinity of the Lxrβ for the coactivator peptide. The close proximity of the fluorescently labeled coactivator peptide to the Tb-labeled antibody causes an increase in the TR-FRET signal intensity. The TR-FRET ratio of 520/495 was calculated using a Victor multi label reader with an excitation wavelength of 340 nm and emission wavelengths of 520 nm and 495 nm. The activational capacity of potential ligands was tested in a […] polypropylene plate, following the manufacturer's protocol.
A general note: Time-resolved FRET reads energy transfer from a long-lived donor to a nearby acceptor.

For test [4], the system named is Islet1+ oculomotor neurons. The experiment in a line: In utero injection into the cerebral aqueduct of E11.5 mice, analysis at E13.5. The test is classed as in vivo, mouse. An excerpt: Animals for in-utero injections and tissue preparation. Female wild-type CD-1 mice (25-35 g; Charles River Breeding Laboratories) were housed, bred, and treated according to the guidelines of the European Communities Council (directive 86/609/EEC) and the Society for Neuroscience (www.sfr.org), and all experiments were approved by the local ethical committee. Ethical approval for CD-I mice experimentation was granted by Stockholm Norra Djurforsoksetisks Namnd number N1 54/06, N273/11 and N370/09. For embryo analyses, wild type CD-I mice were mated overnight, and noon of the day the plug was considered E0.5. Embryos were dissected out of the uterine horns in ice-cold PBS, fixed in 4% paraformaldehyde (PFA) for 4 h to overnight, cryoprotected in 15-30% sucrose, frozen in Tissue-Tek Optimum Cutting Temperature (OCT) compound (Sakura Fine-Tek) on dry ice, and stored at −80° C. until use. Serial coronal 14-μπι sections of the brain were obtained on a cryostat.
Immunohistochemical analysis of sections. Ten sets of 14 μπι serial coronal sections were cut on a cryostat. No. 1 and 6 sets were subjected to immunohistochemistry. Sections were pre-incubated for 1 h in blocking solution followed by incubation at 4° C. overnight with following primary antibodies: anti-TH (1:750, Pel-Freeze), anti-Islet-1 (1:100; Developmental Studies Hybridoma Bank), anti-cleaved caspase-3 (Aspl175) (1:100; Cell Signaling Technology). After washing, slides were incubated for 1-2 h at room temperature with the appropriate fluorophore-conjugated (Cy2-, Cy3- and Cy5-, 1:300, Jackson Laboratories; Alexa488-, 555-, and 647-, 1:1000, Invitrogen) secondary antibodies. Confocal pictures were taken with a Zeiss LSM5 Exciter or LSM700 microscope.
In utero intraventricular injections. E11.5 pregnant females were deeply anesthetized using Isofluorane (ISOFLO®, Abbott Labs) and the uterine horns were accessed through an abdominal incision. 1 μL of the different cholestenoic acids studied (5 mM) or vehicle solution (isopropanol, 50% v/v) was injected into the cerebral aqueduct. The uterine horns were replaced into the abdominal cavity, which was then closed with sutures. Embryos were analyzed 48 h later.

Where [5] appears, read: 1 μL of 5 mM injected at E11.5, analysed at E13.5.

Regarding `CC(CCC[C@@H](C)[C@H]1CC[C@H]2[C@@H]3[C@H](O)C=C4C[C@@H](O)CC[C@]4(C)[C@H]3CC[C@]12C)C(=O)O` (stereo partly drawn) [3β,7α-diHCA, 3β,7α-dihydroxycholest-5-en-26-oic acid], the “Lxrα activation, luciferase activity” value in test [1] is “have the ability to activate both Lxrs”. Besides, in test [2], the “Lxrβ activation, luciferase activity” value was “have the ability to activate both Lxrs” and the “Lxrβ activational capacity in combination with 22R-HC” value is given as “No additive effect was observed”. For the same compound, in test [3] (dose response), the “TR-FRET induction (coactivator recruitment to Lxrβ-LBD)” value is “induced FRET in a dose dependent manner to a higher degree than the other acids”. Further, in test [4] (setting [5]), the “Number of Islet+ oculomotor neurons in vivo” value is on record as “an increase in the number of Islet+ oculomotor neurons” and the “Number of TH+ neurons in vivo” value is reported as “not of TH+ neurons”. Also, the “Effect of co-injection on the 3β-HCA-induced reduction of Islet+ oculomotor neurons” value in test [4] (co-injected with 3β-HCA) is given as “this effect was eliminated by co-injection of 3β,7α-diHCA”.
In the case of `CC(CCC[C@@H](C)[C@H]1CC[C@H]2[C@@H]3CC=C4C[C@@H](O)CC[C@]4(C)[C@H]3CC[C@]12C)C(=O)O` (stereo partly drawn) [3β-HCA, 3β-hydroxycholest-5-en-26-oic acid], in test [1], the “Lxrα activation, luciferase activity” value is “activates Lxr”. Moreover, in test [2], the “Lxrβ activation, luciferase activity” value was “activates Lxr” and the “Lxrβ activational capacity in combination with 22R-HC” value was “No additive effect was observed”. Further, the “Competitor concentration with significant difference (p<0.05) from 10 μM 3β,7α-diHCA alone in TR-FRET Lxrβ coactivator assay” value in test [3] (added to 10 μM 3β,7α-diHCA) is not below 5 µM. Moreover, in test [3] (increasing concentrations with 3β,7α-diHCA at its most potent concentration), the “Competition with 3β,7α-diHCA in TR-FRET Lxrβ coactivator assay” value is “the effect of 3β,7α-diHCA was reduced to that of the latter acids”. Moreover, the “Number of Islet+ oculomotor neurons in vivo” value in test [4] (setting [5]) was “the number of Islet+ oculomotor neurons was reduced”.
